Data reported in patent publication US7598244B2, “[1,2,4]triazolo[1,5,a]pyrimidin-2-ylurea derivative and use thereof” (Nippon Kayaku Kabushiki Kaisha, priority 2003, dated 2009).

Test system: MHC class I molecules of T1 cells (human lymphoma cell line 174×CEM.)
Assay: Effect on expression of MHC class I from T1 cells (flow cytometry, MFI)
Assay type: cell-based
Details: 3 days culture
Outline: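 EC20 is the compound level that lowers MHC class I MFI by 20% relative to compound-free cultures. Read-out was flow cytometry after FITC W6/32 staining.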

Row | SMILES | EC20 (concentration necessary for suppressing 20% of the expression level of MHC class I molecules)
1 | C[C@H](NC(=O)Nc1nc2nccc(-c3cccc(O)c3)n2n1)c1cccc(O)c1 [Example 267] | 550 nM
2 | COc1cccc([C@H](C)NC(=O)Nc2nc3nccc(-c4ccc(OCCN5CCOCC5)cc4)n3n2)c1 [Example 269] | 15 nM
3 | CC(CCCC(C)(C)O)NC(=O)Nc1nc2nccc(-c3cccs3)n2n1 (stereo not shown) [Example 272, 1-(5-hydroxy-1,5-dimethylhexyl)-3-(7-thiophen-2-yl[1,2,4]triazolo[1,5-a]pyrimidin-2-yl)urea] | 69 nM
4 | COc1ccc(-c2ccnc3nc(NC(=O)NC(C)CCC(=O)N4CCOCC4)nn23)cc1 (stereo not shown) [Example 273] | 600 nM
5 | COc1ccc(-c2ccnc3nc(NC(=O)NC(C)CCCC(=O)N4CCOCC4)nn23)cc1 (stereo not shown) [Example 275] | 540 nM
6 | CCOCCCC(C)NC(=O)Nc1nc2nccc(-c3ccc(OC)cc3)n2n1 (stereo not shown) [Example 276] | 120 nM
7 | COc1ccc(-c2ccnc3nc(NC(=O)NC(C)CCN(C)C(=O)OC(C)(C)C)nn23)cc1 (stereo not shown) [Example 277] | 180 nM
8 | CCOCCC(C)NC(=O)Nc1nc2nccc(-c3cccs3)n2n1 (stereo not shown) [Example 281] | 120 nM
9 | COc1ccc(-c2ccnc3nc(NC(=O)NC(C)CCCN(C)C(=O)OC(C)(C)C)nn23)cc1 (stereo not shown) [Example 282] | 58 nM
10 | COc1ccc(-c2ccnc3nc(NC(=O)NC(C)CCCN(C)C(C)=O)nn23)cc1 (stereo not shown) [Example 283] | 200 nM
11 | CCCC(C)NC(=O)Nc1nc2nccc(-c3cccs3)n2n1 (stereo not shown) [Example 284] | 190 nM
12 | CCCC(C)NC(=O)Nc1nc2nccc(-c3ccc(OC)cc3)n2n1 (stereo not shown) [Example 285] | 320 nM
13 | CCCC(C)NC(=O)Nc1nc2nccc(-c3ccc(OCCOC)cc3)n2n1 (stereo not shown) [Example 286] | 160 nM
14 | CC(CCCC(=O)N1CCOCC1)NC(=O)Nc1nc2nccc(-c3cccs3)n2n1 (stereo not shown) [Example 287] | 770 nM
15 | COC(C)(C)CCC[C@H](C)NC(=O)Nc1nc2nccc(-c3cccs3)n2n1 [Example 288] | 20 nM
16 | COCC/C=C/[C@H](C)NC(=O)Nc1nc2nccc(-c3ccc(OC)cc3)n2n1 [Example 289] | 110 nM
17 | COCC/C=C/[C@H](C)NC(=O)Nc1nc2nccc(-c3cccs3)n2n1 [Example 290] | 340 nM
18 | COc1cccc([C@H](C)NC(=O)Nc2nc3nccc(-c4ccc(OC(=O)N5CCC(N6CCCCC6)CC5)cc4)n3n2)c1 [Example 293] | 90 nM
19 | COc1cc(C(C)NC(=O)Nc2nc3nccc(-c4cccs4)n3n2)cc(OC)c1OC (stereo not shown) [Example 294] | 70 nM
20 | CC(NC(=O)Nc1nc2nccc(-c3cccs3)n2n1)c1ccc2c(c1)OCO2 (stereo not shown) [Example 295] | 790 nM
21 | COc1ccc(-c2ccnc3nc(NC(=O)NC(C)c4cc(OC)c(OC)c(OC)c4)nn23)cc1 (stereo not shown) [Example 296] | 70 nM
22 | COc1ccc(-c2ccnc3nc(NC(=O)NC(C)c4ccc5c(c4)OCO5)nn23)cc1 (stereo not shown) [Example 297] | 110 nM
23 | COc1ccc(-c2ccnc3nc(NC(=O)NC(C)CCN(C)C(=O)C(C)(C)OC(C)=O)nn23)cc1 (stereo not shown) [Example 298] | 80 nM

Row | SMILES | EC20 (concentration necessary for suppressing 20% of the expression level of MHC class I molecules)
24 | CC(=O)OC(C)(C)C(=O)N(C)CCC(C)NC(=O)Nc1nc2nccc(-c3cccs3)n2n1 (stereo not shown) [Example 299] | 430 nM
25 | CC(NC(=O)Nc1nc2nccc(-c3ccc4c(c3)OCO4)n2n1)c1ccc2c(c1)OCO2 (stereo not shown) [Example 301] | 640 nM
26 | COc1cc(C(C)NC(=O)Nc2nc3nccc(-c4ccc5c(c4)OCO5)n3n2)cc(OC)c1OC (stereo not shown) [Example 302, 1-[7-(3,4-methylenedioxyphenyl)-[1,2,4]triazolo[1,5-a]pyrimidin-2-yl]-3-[1-(3,4,5-trimethoxyphenyl)ethyl]urea] | 180 nM
27 | COc1cccc([C@H](C)NC(=O)Nc2nc3nccc(-c4cccc(Cl)c4)n3n2)c1 [Example 303] | 680 nM
28 | COc1cc(C(C)NC(=O)Nc2nc3nccc(-c4cccc(Cl)c4)n3n2)cc(OC)c1OC (stereo not shown) [Example 305] | 520 nM
29 | CC(NC(=O)Nc1nc2nccc(-c3cccc(OCc4cccnc4)c3)n2n1)c1ccc2c(c1)OCO2 (stereo not shown) [Example 306] | 230 nM
30 | COc1cc(C(C)NC(=O)Nc2nc3nccc(-c4cccc(OCc5cccnc5)c4)n3n2)cc(OC)c1OC (stereo not shown) [Example 307] | 140 nM
31 | COc1cccc([C@H](C)NC(=O)Nc2nc3nccc(-c4cc(OC)c(OC)c(OC)c4)n3n2)c1 [Example 308] | 760 nM
32 | CC(CCCC(C)(C)O)NC(=O)Nc1nc2nccc(-c3cccc(OCc4cccnc4)c3)n2n1 (stereo not shown) [Example 313, 1-(5-hydroxy-1,5-dimethylhexyl)-3-{7-[3-(pyridin-3-ylmethoxy)phenyl]-[1,2,4]triazolo[1,5-a]pyrimidin-2-yl}urea] | 290 nM
33 | COCCCC(C)NC(=O)Nc1nc2nccc(-c3ccc(OC)cc3)n2n1 (stereo not shown) [Example 314] | 80 nM
34 | COCCCC(C)NC(=O)Nc1nc2nccc(-c3cccs3)n2n1 (stereo not shown) [Example 315] | 270 nM
35 | CC(CCC(C)(C)O)NC(=O)Nc1nc2nccc(-c3cccs3)n2n1 (stereo not shown) [Example 318] | 40 nM
36 | COc1cccc([C@H](C)NC(=O)Nc2nc3nccc(-c4ccc(OCC5CCOCC5)cc4)n3n2)c1 [Example 322] | 20 nM
37 | COc1ccc(-c2ccnc3nc(NC(=O)NC(C)CCC4(C)OCCO4)nn23)cc1 (stereo not shown) [Example 323] | 30 nM
38 | COc1ccc(-c2ccnc3nc(NC(=O)NC(C)COCC4CCOCC4)nn23)cc1 (stereo not shown) [Example 325] | 70 nM
39 | COc1ccc(-c2ccnc3nc(NC(=O)NC(C)CCC(C)=O)nn23)cc1 (stereo not shown) [Example 326] | 210 nM
40 | CCOCCC(C)NC(=O)Nc1nc2nccc(-c3ccc4c(c3)OCO4)n2n1 (stereo not shown) [Example 327, 1-[7-(3,4-methylenedioxyphenyl)-[1,2,4]triazolo[1,5-a]pyrimidin-2-yl]-3-(3-ethoxy-1-methylpropyl)urea] | 150 nM
41 | CCOCC[C@H](C)NC(=O)Nc1nc2nccc(-c3ccc(OCC4CCOCC4)cc3)n2n1 [Example 328] | 70 nM
42 | CCOCC[C@H](C)NC(=O)Nc1nc2nccc(-c3ccc(O)cc3)n2n1 [Example 329] | 60 nM
43 | CC(CCC(C)(C)O)NC(=O)Nc1nc2nccc(-c3ccc4c(c3)OCO4)n2n1 (stereo not shown) [Example 330] | 210 nM
44 | CC(COCC1CCOCC1)NC(=O)Nc1nc2nccc(-c3cccs3)n2n1 (stereo not shown) [Example 331] | 150 nM
45 | COCC[C@H](C)NC(=O)Nc1nc2nccc(-c3cccs3)n2n1 [Example 332] | 760 nM
46 | CC(COCC1CCOCC1)NC(=O)Nc1nc2nccc(-c3ccc4c(c3)OCO4)n2n1 (stereo not shown) [Example 335] | 260 nM
